Laboratory results published in US3982931A, “N,N-di-sec.butyl-benzamide herbicides” (priority 1967, dated 1976).

Legend:
[1] = system: beta vulgaris L. (sugar-beet); test: activity on agrarian species, soil treatment one day after sowing; assay type: in vivo
Source text: The infesting species and the agrarian species have been indicated in Table 1 by letters, as follows:
H = beta vulgaris L. (sugar-beet)
(§1) Method of evaluation of the results (of tests):
(§2) 0 = no activity and no difference with respect to the control;
(§3) 1 slight differences with respect to the control;
(§4) 3 = considerable activity with damages that definitely impair the further development of most of the small plants; an activity degree already useful for practical purposes;
(§5) 4 = maximum of activity with lack of germination or total containment of the small plants in the emerging stage.
(§6) In the case of an intermediate activity between two classes of the scale, both values are recorded with the one which corresponds to the preeminent activity preceding.
TABLE 2 reports the activity data of other compounds that fall within the class which is the object of this invention.
(§7) TABLE 3 reports data on the herbicidal activity against infesting herbs, while TABLE 4 reports data concerning the activity on useful species of agricultural cultivations. These tables employ the criterion explained previously. The product was spread on the soil one day after sowing, in quantities of 1, 3, 6, 8, 10, 12 and 14 kg/ha.

[2] = system: rice; test: plot-test in open field planted with rice; assay type: in vivo; conditions: even at 30 kg/ha of active substance
[3] = system: avena sativa (oats); test: activity on agrarian species, soil treatment one day after sowing; assay type: in vivo, Avena sativa L.
[4] = system: phaseolus vulgaris (bean); test: as above; assay type: in vivo, Phaseolus vulgaris L.
Summary of the method: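 Activity on bean was rated from 0 (no difference from control) to 4 (germination prevented or plants fully contained at emergence), with both classes noted for intermediate effects. Soil treatment one day after sowing, at rates of 1, 3, 6, 8, 10, 12 and 14 kg/ha.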

[5] = system: setaria glauca L.; test: herbicidal activity, soil treatment one day after sowing; assay type: in vivo
[6] = system: oryza sativa L. (rice); test: activity on agrarian species, soil treatment one day after sowing; assay type: in vivo
Summary of the method: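 Activity scored 0 (no difference from control) to 4 (no germination or total containment of emerging plants), intermediates given both classes. Product spread on soil one day after sowing rice, at rates of 1, 3, 6, 8, 10, 12 and 14 kg/ha.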

[7] = system: pisum sativum L. (pea); test: as above; assay type: in vivo
[8] = system: Sorghum sp.; test: herbicidal activity of PA 106 against infesting herbs; assay type: in vivo
Source text: as §1, §2, §3, §4, §5, §6, §7

[9] = system: Digitaria sanguinalis L.; test: as above; assay type: in vivo
Source text: as §1, §2, §3, §4, §5, §6, §7

[10] = system: Papmer rhoeas L.; test: as above; assay type: in vivo
Source text: as §1, §2, §3, §4, §5, §6, §7

[11] = system: Panichum Dichotomi florum M.; test: as above; assay type: in vivo
Source text: as §1, §2, §3, §4, §5, §6, §7

[12] = system: Portulaca oleracea L.; test: as above; assay type: in vivo
Source text: as §1, §2, §3, §4, §5, §6, §7

[13] = system: rice; test: Example 3 rice field test, granular composition; assay type: in vivo; conditions: 4, 6, 8 and 10 kg/ha
Experimental: (§8) In this test a granular composition of PA 106 containing 5% of active principle and 95% of bentonite was used. The treatment was carried out in a rice field with areas of from 900 to 1000 sq.m on naked soil flooded just shortly before the sowing of the rice. There were used doses of granulate equal to 4, 6, 8 and 10 kg of active substance per hectar of surface.

[14] = system: Echinocloa crus-galli; test: Example 3 rice field test, granular composition; assay type: in vivo; conditions: 6 kg of PA 106 per hectar
Experimental: as §8

[15] = system: chenopodium album L.; test: herbicidal activity, soil treatment one day after sowing; assay type: in vivo
[16] = system: Gladiolus sp.; test: activity of PA 106 on useful species (treatment after unearthing the tubers); assay type: in vivo
Source text: as §1, §2, §3, §4, §5, §6, §7
In the case of gladiolus, the treatment was carried out after unearthing the tubers.

CCC(C)N(C(=O)c1ccc(Cl)c(Cl)c1)C(C)CC (stereo not shown) [PA106, 3,4-dichloro-N,N-di-sec.butyl-benzamide]
activity on useful species, Table 4 ([1]; 1 kg/ha): 0
activity on useful species, Table 4 ([1]; 3 kg/ha): 0
activity on H, 0-4 scale ([1]; 6 kg/ha): 1
activity on useful species, Table 4 ([1]; 6 kg/ha): 1
activity on useful species, Table 4 ([1]; 8 kg/ha): 1
activity on useful species, Table 4 ([1]; 10 kg/ha): 1/2
activity on useful species, Table 4 ([1]; 12 kg/ha): 2
activity on useful species, Table 4 ([1]; 14 kg/ha): 2/3
phytotoxic effects on the rice [2]: no phytotoxic effects
activity on useful species, Table 4 ([3]; 1 kg/ha): 0
activity on useful species, Table 4 ([3]; 3 kg/ha): 0
activity on G, 0-4 scale ([3]; 6 kg/ha): 0
activity on useful species, Table 4 ([3]; 6 kg/ha): 0
activity on useful species, Table 4 ([3]; 8 kg/ha): 0
activity on useful species, Table 4 ([3]; 10 kg/ha): 0/1
activity on useful species, Table 4 ([3]; 12 kg/ha): 0/1
activity on useful species, Table 4 ([3]; 14 kg/ha): 1
activity on useful species, Table 4 ([4]; 1 kg/ha): 0
activity on useful species, Table 4 ([4]; 3 kg/ha): 0
activity on I, 0-4 scale ([4]; 6 kg/ha): 0
activity on useful species, Table 4 ([4]; 6 kg/ha): 0
activity on useful species, Table 4 ([4]; 8 kg/ha): 0
activity on useful species, Table 4 ([4]; 10 kg/ha): 0
activity on useful species, Table 4 ([4]; 12 kg/ha): 0/1
activity on useful species, Table 4 ([4]; 14 kg/ha): 0/1
herbicidal activity, Table 3 ([5]; 1 kg/ha): 2/3
herbicidal activity, Table 3 ([5]; 3 kg/ha): 3
activity on E, 0-4 scale ([5]; 4 kg/ha): 3-4
activity on E, 0-4 scale ([5]; 6 kg/ha): 4
herbicidal activity, Table 3 ([5]; 6 kg/ha): 4
herbicidal activity, Table 3 ([5]; 8 kg/ha): 4
herbicidal activity, Table 3 ([5]; 10 kg/ha): 4
herbicidal activity, Table 3 ([5]; 12 kg/ha): 4
herbicidal activity, Table 3 ([5]; 14 kg/ha): 4
activity on useful species, Table 4 ([6]; 1 kg/ha): 0
activity on useful species, Table 4 ([6]; 3 kg/ha): 0
activity on P, 0-4 scale ([6]; 6 kg/ha): 0
activity on useful species, Table 4 ([6]; 6 kg/ha): 0
activity on useful species, Table 4 ([6]; 8 kg/ha): 0
activity on useful species, Table 4 ([6]; 10 kg/ha): 0
activity on useful species, Table 4 ([6]; 12 kg/ha): 0
activity on useful species, Table 4 ([6]; 14 kg/ha): 0/1
activity on useful species, Table 4 ([7]; 1 kg/ha): 0
activity on useful species, Table 4 ([7]; 3 kg/ha): 0
activity on L, 0-4 scale ([7]; 6 kg/ha): 0
activity on useful species, Table 4 ([7]; 6 kg/ha): 0
activity on useful species, Table 4 ([7]; 8 kg/ha): 0
activity on useful species, Table 4 ([7]; 10 kg/ha): 0
activity on useful species, Table 4 ([7]; 12 kg/ha): 0
activity on useful species, Table 4 ([7]; 14 kg/ha): 0
herbicidal activity, Table 3 ([8]; 1 kg/ha): 1
herbicidal activity, Table 3 ([8]; 3 kg/ha): 3
herbicidal activity, Table 3 ([8]; 6 kg/ha): 4
herbicidal activity, Table 3 ([8]; 8 kg/ha): 4
herbicidal activity, Table 3 ([8]; 10 kg/ha): 4
herbicidal activity, Table 3 ([8]; 12 kg/ha): 4
herbicidal activity, Table 3 ([8]; 14 kg/ha): 4
herbicidal activity, Table 3 ([9]; 1 kg/ha): 2/3
herbicidal activity, Table 3 ([9]; 3 kg/ha): 4/3
herbicidal activity, Table 3 ([9]; 6 kg/ha): 4
herbicidal activity, Table 3 ([9]; 8 kg/ha): 4
herbicidal activity, Table 3 ([9]; 10 kg/ha): 4
herbicidal activity, Table 3 ([9]; 12 kg/ha): 4
herbicidal activity, Table 3 ([9]; 14 kg/ha): 4
herbicidal activity, Table 3 ([10]; 1 kg/ha): 0
herbicidal activity, Table 3 ([10]; 3 kg/ha): 1
herbicidal activity, Table 3 ([10]; 6 kg/ha): 2
herbicidal activity, Table 3 ([10]; 8 kg/ha): 3
herbicidal activity, Table 3 ([10]; 10 kg/ha): 4
herbicidal activity, Table 3 ([10]; 12 kg/ha): 4
herbicidal activity, Table 3 ([10]; 14 kg/ha): 4
herbicidal activity, Table 3 ([11]; 1 kg/ha): 2
herbicidal activity, Table 3 ([11]; 3 kg/ha): 5/4
herbicidal activity, Table 3 ([11]; 6 kg/ha): 4
herbicidal activity, Table 3 ([11]; 8 kg/ha): 4
herbicidal activity, Table 3 ([11]; 10 kg/ha): 4
herbicidal activity, Table 3 ([11]; 12 kg/ha): 4
herbicidal activity, Table 3 ([11]; 14 kg/ha): 4
herbicidal activity, Table 3 ([12]; 1 kg/ha): 0
herbicidal activity, Table 3 ([12]; 3 kg/ha): 1/2
herbicidal activity, Table 3 ([12]; 6 kg/ha): 3
herbicidal activity, Table 3 ([12]; 8 kg/ha): 3/4
herbicidal activity, Table 3 ([12]; 10 kg/ha): 4
herbicidal activity, Table 3 ([12]; 12 kg/ha): 4
herbicidal activity, Table 3 ([12]; 14 kg/ha): 4
damage to rice [13]: without suffering any damage
inhibition of growth of the infestant [14]: for all practical purposes be considered as total
herbicidal activity, Table 3 ([15]; 1 kg/ha): 0
activity on C, 0-4 scale ([15]; 2 kg/ha): 0-1
herbicidal activity, Table 3 ([15]; 3 kg/ha): 1
activity on C, 0-4 scale ([15]; 4 kg/ha): 1-2
activity on C, 0-4 scale ([15]; 6 kg/ha): 3
herbicidal activity, Table 3 ([15]; 6 kg/ha): 3
herbicidal activity, Table 3 ([15]; 8 kg/ha): 2/3
herbicidal activity, Table 3 ([15]; 10 kg/ha): 3
herbicidal activity, Table 3 ([15]; 14 kg/ha): 3/4
activity on useful species, Table 4 ([16]; 1 kg/ha): 0
activity on useful species, Table 4 ([16]; 3 kg/ha): 0
activity on useful species, Table 4 ([16]; 6 kg/ha): 0
activity on useful species, Table 4 ([16]; 8 kg/ha): 0
activity on useful species, Table 4 ([16]; 10 kg/ha): 0
activity on useful species, Table 4 ([16]; 12 kg/ha): 0
activity on useful species, Table 4 ([16]; 14 kg/ha): 0
